Values of other authors as cited in patent US20200038341A1, “METHODS AND COMPOSITIONS FOR TREATING JOINT DISEASE” (Script Essentials, LLC, priority 2015, published 2020).

Conditions: male and female participants over 50 years old, before and after the intervention

Q: With `CS(C)(=O)=O` [MSM, Methylsulfonylmethane] as the molecule, how does the “joint function, symptoms of joint degeneration and activities of daily living” value read?
A: improve joint function, relieve symptoms of joint degeneration and improve activities of daily living
